In series [1] the target is Beta-3 adrenergic receptor (Rattus norvegicus) (UniProt P26255). Briefly: Effective dose required for beta-3-adrenergic activity against free fatty acid (FFA) in rat plasma. The format is functional.
A further series is filed under the species Mus musculus. Kind of series: The compound was evaluated for the % glucose lowering along with drug intake over the test period of 5-7 days in mice.
Series [2] has as its target Beta-3 adrenergic receptor (Rattus norvegicus) (UniProt P26255). Briefly: Beta-3-adrenergic activity measured by percent response against free fatty acid (FFA) in rat plasma at a dosage of 0.1 mg/kg. The class given is functional, organism-based. On the set-up: dose 0.1 mg/kg.
The nature of series [3]: Partition coefficient (logP). The class given is physicochemical. Conditions: octanol/water.
The target of series [4] is Beta-3 adrenergic receptor (Rattus norvegicus) (UniProt P26255). Kind of series: Compound was evaluated for the beta-3-adrenergic activity by measuring % response against free fatty acid (FFA) in rat plasma at a dosage of 0.1 mg/kg. The format is functional, organism-based. On the set-up: dose 0.1 mg/kg.

Chain of Beta-3 adrenergic receptor (Rattus norvegicus) (P26255 whole entry): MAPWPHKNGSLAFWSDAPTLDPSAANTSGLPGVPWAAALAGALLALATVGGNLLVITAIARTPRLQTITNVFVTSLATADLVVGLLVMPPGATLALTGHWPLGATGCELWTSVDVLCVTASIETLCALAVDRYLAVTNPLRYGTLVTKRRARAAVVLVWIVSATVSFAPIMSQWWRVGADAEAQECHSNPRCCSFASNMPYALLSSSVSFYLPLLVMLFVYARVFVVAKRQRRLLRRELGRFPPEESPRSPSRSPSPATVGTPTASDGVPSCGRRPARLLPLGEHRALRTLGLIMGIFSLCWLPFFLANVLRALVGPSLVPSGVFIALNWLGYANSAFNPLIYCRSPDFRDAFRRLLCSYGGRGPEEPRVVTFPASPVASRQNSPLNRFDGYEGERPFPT

The term ED50 denotes the dose at which the effect has come halfway, by size or by number of responders. The low end stands for an effect at a small dose, the high end for a need for a large dose. As a reminder, the logP is the decadic logarithm of the partition coefficient of the neutral form, usually between octanol and water. A low value points to a more hydrophilic compound. Take `C[C@H](Cc1ccc2c(c1)OC(C(=O)OCC(C)(C)C)(C(=O)OCC(C)(C)C)O2)NC[C@H](O)c1cccc(Cl)c1`: the figures for the ED50 (in series [1]; in the series filed under Mus musculus) were 0.027 mg/kg and 0.028 mg/kg, respectively. This compound also displayed a Response in series [2] of 134%. Moreover, the logP in series [3] stood at 2.16. With `C[C@H](Cc1ccc2c(c1)OC(C(=O)OCCc1cccs1)(C(=O)OCCc1cccs1)O2)NC[C@H](O)c1cccc(Cl)c1`, the 50% effective dose (ED50) turned out to be 0.076 mg/kg in series [1] and 0.208 mg/kg in the series filed under Mus musculus. Moreover, in series [2], the Response came out at 77%.

Regarding `C[C@H](Cc1ccc2c(c1)OC(C(=O)OCC1CCC1)(C(=O)OCC1CCC1)O2)NC[C@H](O)c1cccc(Cl)c1`, the values for the median effective dose (ED50) (in series [1]; in the series filed under Mus musculus) were 0.071 mg/kg and 0.128 mg/kg, respectively. This compound gave a Response in series [2] of 83%. In series [3], this compound registered a lipophilicity (logP) of 2.34. Take `C[C@H](Cc1ccc2c(c1)OC(C(=O)[O-])(C(=O)[O-])O2)NC[C@H](O)c1cccc(Cl)c1.[Na+].[Na+]`: the ED50 in series [1] was 0.24 mg/kg; in the series filed under Mus musculus, 0.54 mg/kg. The compound also yielded a Response in series [4] of 2%. Also, in series [3], the lipophilicity (logP) is 0.046. For `CC(C)CCOC(=O)C1(C(=O)OCCC(C)C)Oc2ccc(C[C@@H](C)NC[C@H](O)c3cccc(Cl)c3)cc2O1`, the results for the ED50 (in series [1]; in the series listed under Mus musculus) were 0.026 mg/kg and 0.11 mg/kg, respectively. This compound registered a Response in series [2] of 109%. Further, the logP in series [3] was found to be 3.77.

With `C[C@H](Cc1ccc2c(c1)OC(C(=O)OCCC(C)(C)C)(C(=O)OCCC(C)(C)C)O2)NC[C@H](O)c1cccc(Cl)c1`, the ED50 in series [1] was found to be 0.08 mg/kg; in the series listed under Mus musculus, 0.201 mg/kg. The compound also gave a Response in series [2] of 71%. The compound also had a log partition coefficient (logP) in series [3] of 3.21.

For the compound `CC(C)OC(=O)C1(C(=O)OC(C)C)Oc2ccc(C[C@@H](C)NC[C@H](O)c3cccc(Cl)c3)cc2O1`, the values for the median effective dose (ED50) (in series [1]; in the series filed under Mus musculus) were 0.061 mg/kg and 0.056 mg/kg, respectively. In addition, in series [2], the Response was 100%. Moreover, the logP in series [3] is 1.29. For `C[C@H](Cc1ccc2c(c1)OC(C(=O)OCCc1ccsc1)(C(=O)OCCc1ccsc1)O2)NC[C@H](O)c1cccc(Cl)c1`, in series [2], the Response was 80%.

For `CCOC(=O)C1(C(=O)OCC)Oc2ccc(C[C@@H](C)NC[C@H](O)c3cccc(Cl)c3)cc2O1`, the ED50 in series [1] was 0.034 mg/kg; in the series listed under Mus musculus, 0.1 mg/kg. Besides, the Response in series [2] is 114%. For the same compound, the lipophilicity (logP) in series [3] came out at 0.35.

In the case of `CCCCCCCCOC(=O)C1(C(=O)OCCCCCCCC)Oc2ccc(C[C@@H](C)NC[C@H](O)c3cccc(Cl)c3)cc2O1`, in series [2], the Response was 46%. In series [2], `C[C@H](Cc1ccc2c(c1)OC(C(=O)OCC1CC1)(C(=O)OCC1CC1)O2)NC[C@H](O)c1cccc(Cl)c1` had a Response of 99%.

Regarding `CCOC(=O)C(C)OC(=O)C1(C(=O)OC(C)C(=O)OCC)Oc2ccc(C[C@@H](C)NC[C@H](O)c3cccc(Cl)c3)cc2O1` (some centres undefined), the Response in series [2] was 9%. Still for that read-out and setting: for `C[C@H](Cc1ccc2c(c1)OC(C(=O)OCC(=O)c1ccccc1)(C(=O)OCC(=O)c1ccccc1)O2)NC[C@H](O)c1cccc(Cl)c1` the value was 7%; for `CCCCCCC(=O)OCOC(=O)C1(C(=O)OCOC(=O)CCCCCC)Oc2ccc(C[C@@H](C)NC[C@H](O)c3cccc(Cl)c3)cc2O1`, 23%; for `C[C@H](Cc1ccc2c(c1)OC(C(=O)O)(C(=O)OCCC(C)(C)C)O2)NC[C@H](O)c1cccc(Cl)c1` (some centres undefined), 61%. Same read-out and setting: for `C[C@H](Cc1ccc2c(c1)OC(C(=O)OC1CCCC1)(C(=O)OC1CCCC1)O2)NC[C@H](O)c1cccc(Cl)c1` the value was 118%; for `C[C@H](Cc1ccc2c(c1)OC(C(=O)OCC[Si](C)(C)C)(C(=O)OCC[Si](C)(C)C)O2)NC[C@H](O)c1cccc(Cl)c1`, 60%; for `C[C@H](Cc1ccc2c(c1)OC(C(=O)OC/C=C/c1ccccc1)(C(=O)OC/C=C/c1ccccc1)O2)NC[C@H](O)c1cccc(Cl)c1`, 58%. With `COCCOC(=O)C1(C(=O)OCCOC)Oc2ccc(C[C@@H](C)NC[C@H](O)c3cccc(Cl)c3)cc2O1`, in series [2], the Response was 65%. On the same count and under the same terms, the result for `C[C@H](Cc1ccc2c(c1)OC(C(=O)OCOC(=O)c1ccccc1)(C(=O)OCOC(=O)c1ccccc1)O2)NC[C@H](O)c1cccc(Cl)c1` reads 31%; that for `C[C@H](Cc1ccc2c(c1)OC(C(=O)OCC(C)(C)CO)(C(=O)OCC(C)(C)CO)O2)NC[C@H](O)c1cccc(Cl)c1`, 78%. Take `C[C@H](Cc1ccc2c(c1)OC(C(=O)OCCc1ccccc1)(C(=O)OCCc1ccccc1)O2)NC[C@H](O)c1cccc(Cl)c1`: the values for the 50% effective dose (ED50) (in series [1]; in the series filed under Mus musculus) were 0.071 mg/kg and 0.156 mg/kg, respectively. Also, in series [2], the Response was 95%. As for `CCCCOCCOC(=O)C1(C(=O)OCCOCCCC)Oc2ccc(C[C@@H](C)NC[C@H](O)c3cccc(Cl)c3)cc2O1`, the Response in series [2] was 58%. In series [2], `C[C@H](Cc1ccc2c(c1)OC(C(=O)OCCOc1ccccc1)(C(=O)OCCOc1ccccc1)O2)NC[C@H](O)c1cccc(Cl)c1` returned a Response of 2%. In series [2], `CCOC(=O)C1(C(=O)O)Oc2ccc(C[C@@H](C)NC[C@H](O)c3cccc(Cl)c3)cc2O1` (some centres undefined) showed a Response of 57%. Regarding `C[C@H](Cc1ccc2c(c1)OC(C(=O)OC1CCCCC1)(C(=O)OC1CCCCC1)O2)NC[C@H](O)c1cccc(Cl)c1`, the Response in series [2] was determined as 59%. Still for that read-out and setting: the result for `CCCCOCCOC(=O)C1(C(=O)O)Oc2ccc(C[C@@H](C)NC[C@H](O)c3cccc(Cl)c3)cc2O1` (some centres undefined) reads 83%; that for `CCCCCCOC(=O)C1(C(=O)OCCCCCC)Oc2ccc(C[C@@H](C)NC[C@H](O)c3cccc(Cl)c3)cc2O1`, 51%; that for `C[C@H](Cc1ccc2c(c1)OC(C(=O)OC[Si](C)(C)C)(C(=O)OC[Si](C)(C)C)O2)NC[C@H](O)c1cccc(Cl)c1`, 73%.

These data come from ChEMBL document CHEMBL1131783, “Prodrugs of CL316243: a selective beta3-adrenergic receptor agonist for treating obesity and diabetes” (Bioorg Med Chem Lett, 1999).
